Measured values: the RepoRT retention time repository (doi:10.1016/j.chroma.2022.462867)

How the values were obtained:
Conditions in all cases: stereoisomer not certain
[1] = HILIC, Phenomenex Kinetex HILIC, 150 × 3 mm, 2.6 µm, 40 °C, 0.35 mL/min, estimated dead time 1.9 min; A: water + 0.1% formic acid, pH 3; B: methanol; gradient (min/%B) 0/95 20/0 25/0 30/95
[2] = RP, Phenomenex Kinetex EVO C18, 150 × 3 mm, 2.6 µm, 40 °C, 0.35 mL/min, estimated dead time 1.9 min; A: water + 5 mM ammonium formate, pH 5; B: acetonitrile; gradient (min/%B) 0/5 20/100 25/100 30/5
[3] = RP, Phenomenex Kinetex PS C18, 150 × 3 mm, 2.6 µm, 40 °C, 0.35 mL/min, estimated dead time 1.9 min; A: water + 5 mM ammonium acetate, pH 5; B: methanol; gradient (min/%B) 0/5 20/100 25/100 30/5
[4] = RP, Phenomenex Kinetex EVO C18, 150 × 3 mm, 2.6 µm, 40 °C, 0.35 mL/min, estimated dead time 1.9 min; A: water + 0.1% formic acid, pH 3; B: methanol; gradient (min/%B) 0/5 20/100 25/100 30/5

LC retention time [1] [min]	LC retention time [2] [min]	LC retention time [3] [min]	LC retention time [4] [min]	Compound
2.32	11.3	15.1	–	CCN=C1NC(NC(C)C)=NC(SC)N1 (centres undefined) [Ametryn]
2.68	–	13.7	8.8	CCN=C1NC(NC(C)C)=NC(OC)N1 (centres undefined) [Atraton]
2.73	–	16.2	11.5	CC(C)(C)C(=O)C(Oc1ccc(Cl)cc1)n1ccnc1 (centres undefined) [Climbazole]
3.02	3.66	7.52	–	CN1C(=O)CCC1c1cccnc1 (centres undefined) [Cotinine]
3.47	11.5	12.8	9.18	O=C(NCC1CCCCN1)c1cc(OCC(F)(F)F)ccc1OCC(F)(F)F (centres undefined) [Flecainide]
3.41	12.3	13.7	9.88	O=C(CCCN1CCC(O)(c2ccc(Cl)cc2)CC1)c1ccc(F)cc1 [Haloperidol]
3.65	12.9	17.1	10.4	C=CCOC(Cn1ccnc1)c1ccc(Cl)cc1Cl (centres undefined) [Imazalil]
4.05	12.2	17.6	11.2	CC(=O)N1CCN(c2ccc(OCC3COC(Cn4ccnc4)(c4ccc(Cl)cc4Cl)O3)cc2)CC1 (centres undefined) [Ketoconazole]
4.13	6.48	9.2	5.49	CN(C)CC(c1ccc(O)cc1)C1(O)CCCCC1 (centres undefined) [O-Desmethylvenlafaxine]
3.31	13.3	17.1	11.5	COC(=O)C1C2CC3c4[nH]c5cc(OC)ccc5c4CCN3CC2CC(OC(=O)c2cc(OC)c(OC)c(OC)c2)C1OC (centres undefined) [Reserpine]

Compound	LC retention time [1] [min]	LC retention time [2] [min]	LC retention time [3] [min]	LC retention time [4] [min]
NCC1(CC(=O)O)CCCCC1 [Gabapentin]	3.33	2.95	5.49	4.04
Cc1ccc(S(=O)(=O)N(C)N=O)cc1 [N-Methyl-N-nitrosotoluene-4-sulphonamide]	2.38	9.88	13.9	10.3
